The assay addresses T1, 17-beta-hydroxysteroid dehydrogenase 13 (Homo sapiens, UniProt Q7Z5P4).
T1 sequence (Q7Z5P4 whole entry): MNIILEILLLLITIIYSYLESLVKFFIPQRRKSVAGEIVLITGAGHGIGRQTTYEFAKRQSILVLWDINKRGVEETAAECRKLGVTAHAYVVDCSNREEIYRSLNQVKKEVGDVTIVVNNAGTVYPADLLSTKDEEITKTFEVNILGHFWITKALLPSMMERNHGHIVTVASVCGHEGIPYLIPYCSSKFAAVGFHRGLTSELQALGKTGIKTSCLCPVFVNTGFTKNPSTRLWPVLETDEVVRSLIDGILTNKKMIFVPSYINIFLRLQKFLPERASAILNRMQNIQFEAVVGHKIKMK
Nature of the assay: In Vitro 17bHSD13 Enzyme Assay. As to the method:
Final assay conditions were 80 nM of 17bHSD13, 0.5 mM of NAD, 20 μM Estradiol and various concentrations of compound in buffer (5 mM EDTA (TEKNOVA E0306), 0.01% DDM (AFFYMETRIX D310) in 50 mM Tris-Cl, pH 7.4). After 2.5 h the reaction were stopped by addition of 20 μl of 0.6% Formic acid (MERCK 5.33002) and samples were analyzed using LC-MS/MS.SCIEX LC-MS/MS system: Sample was injected with CTC analytical injector, SHIMATZU LC pumps LC20 and analyzed on the SCIEX API 5000 LCMSMS system with the following settings. Samples were chromatographed on a WATERS, […], C8, 3.5 μm, 2.1×50 mm) column at constant flow rate of 0.5 mL/min. The mobile phases consist of A (water with 0.2% formic acid) and B (acetonitrile with 0.2% formic acid). The LC gradient profile is as follows: 50% B during 0 to 0.5 min, a linear increase to 100% B during 0.5 to 1 min, hold at 100% B during 1 to 1.6 min then back to 50% B from 1.6 to 2 min. The run time was 2 min with retention times of approximately 0.8 and 1.07 min for Estradiol and Estrone, respectively. Detection was performed on a API 5000 LC/MS/MS system with a triple quadrupole mass spectrometer, a TURBO V ion source, in multiple reaction monitoring (MRM) mode at positive polarity with APCI probe. The MRM pairs were m/z 273.1 to m/z 107.0 and m/z 271.3 to 107.0. for Estradiol and Estrone, respectively.

Molecules are shown by their SMILES.

As to `CN(C(=O)c1noc(-c2cc(F)c(F)c(O)c2F)n1)c1cccc(C#N)c1` [US20250011311, Example 63], it took 151 nM to reach half-maximal inhibition (IC50).

Values taken from BindingDB's records for patent US20250011311 (Astrazeneca, 2025).
